From paper PMC8237267 (Journal of Medicinal Chemistry, 2021)
Several values for one entry are separate records, joined by “and”; a condition that tells them apart may be missing. Identical values can stand only once. Like-named read-outs stand apart in the source and are kept apart here.

Experiments:
MRC-9 = assay: Cytotoxicity assay (Cell Titer-Blue, 72 h); format: cell-based; conditions: MRC9; MRC-9 (healthy fibroblasts); read-out: In cellulo IC50 MRC-9
HDAC6 [1] = target: T1, HDAC6 (Homo sapiens, UniProt Q9UBN7); assay: HDAC EMSA activity assay (Nanosyn); format: biochemical; parameters: The full-length human HDACs were recombinantly expressed and purified from SF9 insect cells; host or cells: SF9 insect cells; conditions: for IC50: EMSA (Nanosyn); for HDAC6 fold-selectivity: over the next closest HDAC isoform tested, * = selectivity ≥ indicated value
T1 sequence (Q9UBN7 1-1215): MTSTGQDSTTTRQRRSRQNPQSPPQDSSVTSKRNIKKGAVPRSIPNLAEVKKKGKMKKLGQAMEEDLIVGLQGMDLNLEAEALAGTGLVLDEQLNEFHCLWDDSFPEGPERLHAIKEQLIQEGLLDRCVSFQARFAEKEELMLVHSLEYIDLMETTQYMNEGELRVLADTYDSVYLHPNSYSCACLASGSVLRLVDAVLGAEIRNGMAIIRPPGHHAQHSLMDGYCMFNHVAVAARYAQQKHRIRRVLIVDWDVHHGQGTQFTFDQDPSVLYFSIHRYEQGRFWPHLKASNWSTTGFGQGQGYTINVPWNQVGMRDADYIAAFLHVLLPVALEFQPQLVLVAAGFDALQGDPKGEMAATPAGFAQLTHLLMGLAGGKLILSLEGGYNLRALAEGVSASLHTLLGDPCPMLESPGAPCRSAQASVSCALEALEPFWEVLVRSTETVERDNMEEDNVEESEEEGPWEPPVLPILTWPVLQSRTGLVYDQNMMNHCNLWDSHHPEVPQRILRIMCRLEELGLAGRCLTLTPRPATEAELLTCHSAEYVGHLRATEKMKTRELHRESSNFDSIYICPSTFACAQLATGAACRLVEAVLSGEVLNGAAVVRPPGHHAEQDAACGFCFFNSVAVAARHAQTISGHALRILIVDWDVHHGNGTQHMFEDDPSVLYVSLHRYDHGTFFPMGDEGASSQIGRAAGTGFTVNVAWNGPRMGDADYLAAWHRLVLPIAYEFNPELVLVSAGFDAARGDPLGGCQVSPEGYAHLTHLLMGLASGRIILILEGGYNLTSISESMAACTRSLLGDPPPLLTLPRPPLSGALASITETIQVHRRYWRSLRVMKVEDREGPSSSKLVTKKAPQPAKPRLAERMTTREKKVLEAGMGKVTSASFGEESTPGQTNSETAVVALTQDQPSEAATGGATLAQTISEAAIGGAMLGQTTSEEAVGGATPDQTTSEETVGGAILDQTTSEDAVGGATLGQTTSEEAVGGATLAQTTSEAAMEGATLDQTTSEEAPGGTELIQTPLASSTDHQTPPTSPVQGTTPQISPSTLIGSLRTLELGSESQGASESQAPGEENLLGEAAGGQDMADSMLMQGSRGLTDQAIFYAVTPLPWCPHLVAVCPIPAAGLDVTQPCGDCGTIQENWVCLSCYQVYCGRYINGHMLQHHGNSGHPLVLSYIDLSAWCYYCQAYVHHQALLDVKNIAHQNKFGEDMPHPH

HDAC3 = target: T2, HDAC3 (Homo sapiens, UniProt O15379); assay: HDAC EMSA activity assay (Nanosyn); format: biochemical; conditions: recombinant enzyme, read-out: In vitro IC50 HDAC3
T2 construct: The full-length human HDACs were recombinantly expressed and purified from SF9 insect cells; host or cells: SF9 insect cells

HDAC6 [2] = target: T1, HDAC6; assay: Reversibility of inhibition (Koff kinetics), residence time; format: biochemical; conditions: compound-HDAC6 complex; read-out: in vitro residence time (1/kobs)
Text: Progress curves were obtained after dilution, and enzyme recovery was fitted with the following equation: % conv = Vs × t + (Vi – Vs)/Kobs app × (1 – exp(−Kobs app × t), in which Vi is the initial velocity, Vs is steady state velocity, and Kobs is the observed rate constant. The obtained Kobs rate constant was used to determine the reversibility of inhibition and calculate residence time as 1/2Tres = ln2 × 1/Kobs.

HDAC8 = target: T3, HDAC8 (Homo sapiens, UniProt Q9BY41); assay: HDAC EMSA activity assay (Nanosyn); format: biochemical; conditions: recombinant enzyme, EMSA (Nanosyn); read-out: In vitro IC50 HDAC8
T3 construct: The full-length human HDACs were recombinantly expressed and purified from SF9 insect cells; host or cells: SF9 insect cells
T3 sequence (Q9BY41 1-377): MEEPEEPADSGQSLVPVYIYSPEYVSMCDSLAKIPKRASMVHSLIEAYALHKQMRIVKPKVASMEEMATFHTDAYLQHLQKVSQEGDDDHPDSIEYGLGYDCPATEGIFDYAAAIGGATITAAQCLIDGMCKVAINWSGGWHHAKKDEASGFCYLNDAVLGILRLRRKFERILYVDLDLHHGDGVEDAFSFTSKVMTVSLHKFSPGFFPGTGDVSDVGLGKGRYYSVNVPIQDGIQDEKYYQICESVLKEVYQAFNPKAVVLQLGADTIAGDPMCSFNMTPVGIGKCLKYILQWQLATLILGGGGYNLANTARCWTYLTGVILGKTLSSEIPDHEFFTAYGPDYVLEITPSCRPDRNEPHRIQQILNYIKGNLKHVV

HDAC11 = target: T4, HDAC11 (Homo sapiens, UniProt Q96DB2); assay: HDAC EMSA activity assay (Nanosyn); format: biochemical; conditions: recombinant enzyme, read-out: In vitro IC50 HDAC11
T4 construct: The full-length human HDACs were recombinantly expressed and purified from SF9 insect cells; host or cells: SF9 insect cells
T4 sequence (Q96DB2 1-347): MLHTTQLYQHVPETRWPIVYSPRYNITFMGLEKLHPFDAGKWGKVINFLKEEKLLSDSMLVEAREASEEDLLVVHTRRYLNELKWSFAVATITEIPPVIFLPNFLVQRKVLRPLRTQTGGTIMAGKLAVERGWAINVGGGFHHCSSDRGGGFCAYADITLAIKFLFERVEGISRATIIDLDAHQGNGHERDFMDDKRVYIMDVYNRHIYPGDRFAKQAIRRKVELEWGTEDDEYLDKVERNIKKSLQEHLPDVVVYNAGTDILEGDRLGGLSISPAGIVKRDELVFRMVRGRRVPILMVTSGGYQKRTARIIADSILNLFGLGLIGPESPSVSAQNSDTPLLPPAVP

MV4-11 = assay: Cytotoxicity assay (Cell Titer-Blue, 72 h); format: cell-based; conditions: Homo sapiens; MV4-11 (AML); read-out: In cellulo IC50 MV4-11
[3] = Stability in human hepatocytes; format: in vitro ADME; conditions: read-out: t1/2 in human hepatocytes
[4] = Glutathione stability / reactivity assay; format: in vitro ADME
Description: Although covalent modification of HDAC6 was not observed (Figure S2), the PFBS group is susceptible to nucleophilic aromatic substitution by biological nucleophiles. A previously described high-throughput in vitro glutathione-reactivity assay was conducted, where compounds were incubated in the presence of glutathione (GSH) and the formation of a GSH-compound adduct was monitored over time via LC/MS/MS.[50]
Compound was added to PBS and 5 mM GSH to reach a final concentration of 5 μM. […] Samples were vortexed and centrifuged for 45 min at 3220g. Aliquots were diluted by ultrapure water, and used for LC/MS/MS analysis. Peak area ratios were determined and percent compounds remaining was calculated by the following equation: [drawing 1] where peak area ratio (t min) is the peak area ratio of control and test compounds at t min; peak area ratio0min is the peak area ratio of control and test compounds at the zero time point. In vitro half-life (t1/2) = −(0.693/k).

[5] = In vitro stability in mouse hepatocytes; format: in vitro ADME; conditions: read-out: Stability in mouse hepatocytes t1/2
Description: The inhibitors (and controls) were formulated to concentrations of 100 μM in 50% acetonitrile/50% water. The medium (William’s E Medium supplemented with GlutaMAX) and hepatocyte thawing medium were allowed to reach room temperature and the hepatocytes and thawing medium and centrifuged at 100 g for 10 min. The supernatant was removed, and hepatocytes resuspended in the incubation medium (∼1.5 × 10^6 cells/mL). The cells were diluted to 0.5 × 10^6 viable cells/mL. A volume of 198 μL of hepatocytes was transferred to a 96-well noncoated plate and incubated at 37 °C for 10 min. Following this, 2 μL of the 100 μM test compounds or positive control was transferred into respective wells to start the reaction. At different time points (0, 15, 30, 60, 90, and 120 min), 25 μL aliquots were mixed with 6 volumes (150 μL) of acetonitrile containing internal standard, IS (100 nM alprazolam, 200 nM labetalol, 200 nM caffeine, and 200 nM diclofenac) to terminate the reaction. Samples were vortexed for 5 min and centrifuged for 45 min at 3220g, diluted by ultrapure water, followed by LC/MS/MS analysis. The in vitro half-life (T1/2) was determined by regression analysis of the percent parent disappearance vs time curve (T1/2 = 0.693/k) using Microsoft Excel.

[6] = Stability in hepatocytes (species not stated); format: in vitro ADME; parameters: dose or concentration left out as unconfirmed; conditions: mouse, species not given
HDAC6 [7] = target: T1, HDAC6; assay: Time-dependent IC50 assay with preincubation (0-6 h); format: biochemical; conditions: 6 h time-dependent assay
Description: The binding kinetics profile of KT-531 was also investigated by determining the association (kon)/dissociation (koff) rates as well as residence time parameters. The in vitro residence time (1/kobs) for the KT-531–HDAC6 complex was determined to be 23.18 min, as compared to 10.72 min for 1.

[8] = Stability in mouse plasma; format: in vitro ADME; parameters: half-life at 2 h: dose or concentration left out as unconfirmed; conditions: read-out: Plasma stability t1/2
Description: The plasma stability of the compounds was evaluated in mouse plasma provided from Sigma-Aldrich, Oakville, Canada. The main stock solutions of the compounds were prepared at 10 mM in DMSO, which was diluted to 100 μM in 50% acetonitrile (ACN)/50% water. Aliquots of 356.5 μL of plasma proteins were placed in a heating block and allowed to equilibrate at 37 °C for 5 min. Then, 3.5 μL of 100 μM compound solutions were added to each vial (final concentration of 1 μM). Three quality control (QC) samples at 100, 500, and 1000 nM were prepared in 0.5% ACN. The vial contents were transferred in 50 μL aliquots at time points of 0.5, 5, 10, 20, 30, and 60 mi to a 96-well autosampler plate containing 150 μL of protein precipitation solution. Ice-cold ACN containing internals standards (100 nM glyburide) were used as the protein precipitation solution. After centrifugation at 4 °C, 5500 rpm for 15 min, the supernatant was diluted in MQ water, and injected into the LC/MS/MS for quantitative analysis.
The mobile phase consisted of (A) 0.1% (v/v) formic acid in Milli-Q water; (B) 0.1% (v/v) formic acid in acetonitrile. […] Peak areas were determined from extracted ion chromatograms. The in vitro half-life (t1/2) of parent compounds were determined by regression analysis of the percent parent disappearance vs time curve.

[9] = recombinant enzyme, read-out: In vitro IC50 HDAC6
[10] = PBS with 5 mM glutathione (GSH), 5 mM GSH, PBS, read-out: half-life in incubation with GSH

T2 sequence (O15379 whole entry): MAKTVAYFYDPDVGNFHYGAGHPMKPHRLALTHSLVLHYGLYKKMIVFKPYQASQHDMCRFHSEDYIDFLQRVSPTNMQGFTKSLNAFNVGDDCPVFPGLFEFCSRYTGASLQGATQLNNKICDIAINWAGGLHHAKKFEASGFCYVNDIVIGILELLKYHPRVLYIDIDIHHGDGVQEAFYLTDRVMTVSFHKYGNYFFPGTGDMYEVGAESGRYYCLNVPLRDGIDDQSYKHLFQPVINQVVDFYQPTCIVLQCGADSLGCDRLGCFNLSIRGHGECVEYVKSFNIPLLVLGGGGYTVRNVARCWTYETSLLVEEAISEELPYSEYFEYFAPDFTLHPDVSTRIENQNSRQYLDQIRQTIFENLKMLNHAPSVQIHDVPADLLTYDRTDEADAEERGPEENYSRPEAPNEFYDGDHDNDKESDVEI
T2 sequence (Q9Y618 395-489 partner limits assumed): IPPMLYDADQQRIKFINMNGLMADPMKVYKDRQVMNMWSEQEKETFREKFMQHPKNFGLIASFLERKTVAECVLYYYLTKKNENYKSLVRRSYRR

IC50 (HDAC6 [1]; read-out: IC50 HDAC6) [nM]	HDAC6 fold-selectivity (HDAC6 [1])	IC50 (HDAC6 [1]; [9]) [nM]	IC50 (HDAC3) [nM]	residence time (HDAC6 [2]) [min]	IC50 (HDAC8) [nM]	IC50 (HDAC11) [nM]	half-life [3] [min]	half-life at 5 μM [4, 10] [min]	half-life at 2 h, 5 µM [4, 10] [min]	half-life at 1 μM [5] [min]	half-life at 2 h [6] [min]	reversibility of binding (IC50 over preincubation time) (HDAC6 [7])	half-life at 2 h [8] [min]	reactivity with glutathione ([4]; GSH adduct formation by LC/MS/MS, KT-531 up to 24 h)	SMILES	IC50 (MRC-9) [nM]	IC50 (MV4-11) [nM]
5.9	36 fold and 36.32 fold	6	200	10.7	700	> 1000	–	–	–	–	–	–	–	–	O=C(NO)c1ccc(CNC(=O)c2c(F)c(F)c(F)c(F)c2F)cc1 [Compound 1, 2,3,4,5,6-Pentafluoro-N-(4-(hydroxycarbamoyl)benzyl)benzamide]	> 50000	1850
0.9	–	–	70	–	29	47	3.84	~20	20	< 2.26	3	unchanged IC50 values	–	–	O=C(NO)c1ccc(CN(C2CC2)S(=O)(=O)c2c(F)c(F)c(F)c(F)c2F)cc1 [Compound 5, 4-(((N-Cyclopropyl-2,3,4,5,6-pentafluorophenyl)sulfonamido)methyl)-N-hydroxybenzamide]	> 20000	–
–	37.8 fold	10	> 1000	–	378	> 1000	–	–	–	–	–	–	25	unreactive toward GSH	O=C(NO)c1ccc(CN(C2CC2)S(=O)(=O)c2c(F)c(F)cc(F)c2F)cc1 [Compound 6, 4-(((N-Cyclopropyl-2,3,5,6-tetrafluorophenyl)sulfonamido)methyl)-N-hydroxybenzamide]	> 15000	6140
